{"source": "paper PMC8522722", "about": "“Safety and Pharmacokinetics in Human Volunteers of Taniborbactam (VNRX-5133), a Novel Intravenous β-Lactamase Inhibitor” (Antimicrobial Agents and Chemotherapy, 2021)", "key": {"[1]": {"assay": "Cardiodynamic ECG assessment and concentration-QT effect model (SAD part)", "format": "in vivo, human", "method": "ECG and pharmacokinetic data from the SAD part of the study were used to construct a concentration-QT effect model to assess potential QT effects. The primary cardiodynamic safety parameter was the corrected QT interval by Fredericia (QTcF). The potential impact of taniborbactam on other ECG intervals and T-wave morphology was also assessed. The ECG monitoring in the study was intensive, with continuous Holter 12-lead ECGs recorded on day 1. ECG data used in the modeling consisted of extracted replicates at time points that matched the pharmacokinetic data. The concentration-QT effect model included the entire single-dose range of between 62.5 mg and 1,500 mg taniborbactam."}, "[2]": {"assay": "Multiple-ascending-dose (MAD) pharmacokinetics in plasma and urine, healthy adult volunteers", "format": "in vivo, human", "settings": "for AUCtau / Cmax / CLR,SS / CLSS / Vz / t1/2 / Ae / Fe: mean (%CV); for Tmax: median (range); for t1/2: terminal elimination; for Ae / Fe: urine through the dosing interval (8 h); for AUCtau mean ratio, last dose compared to first dose: day 10 vs day 1", "method": "Eligible subjects were randomized to receive either taniborbactam or placebo in a 3:1 ratio within dose cohorts in both the SAD and MAD parts of the study. Each dose cohort in the SAD part of the study enrolled 8 subjects, and each dose cohort in the MAD part of the study enrolled 12 subjects. In the SAD part, subjects received 62.5, 125, 250, 500, 1,000, or 1,500 mg taniborbactam as a 2-h intravenous (i.v.) infusion. In the MAD part, subjects received 2-h intravenous i.v. infusions of 250, 500, or 750 mg taniborbactam q8h over 10 days, ending after a final morning dose on day 10 (total of 28 doses).\nBlood samples for assay of taniborbactam in plasma were collected predose and at 1, 2, 2.25, 2.5, 2.75, 3, 4, 6, 8, 12, 26, and 50 h after the start of drug infusion in the SAD part. For the MAD part, blood samples to determine taniborbactam plasma concentrations were collected predose and at 1, 2, 2.25, 2.5, 2.75, 3, 4, 6, and 8 h following the first dose (day 1) and predose and at 1, 2, 2.25, 2.5, 2.75, 3, 4, 6, 10, 14, and 26 h following the last dose (day 10). Urine was collected predose and at intervals of 0 to 4, 4 to 8, 8 to 24, and 24 to 48 h after the start of the infusion in the SAD part for the higher-dose groups (500 to 1,500 mg taniborbactam). For the MAD part, urine was collected through the dosing interval following the last dose using collection intervals of 0 to 4 and 4 to 8 h after the start of the infusion. At the end of each urine collection interval, the volume of each urine collection was recorded and a sample was taken.\nPlasma and urine samples were assayed for taniborbactam and screened for possible metabolites. Human dipotassium ethylenediaminetetraacetic acid (K2EDTA) plasma samples were processed using protein precipitation and assayed using ultra-high-performance liquid chromatography with tandem mass spectrometric detection (LC-MS/MS). Both low- and high-range methods were developed and validated for plasma samples, with calibration ranges of 5 to 5,000 ng/ml and 100 to 100,000 ng/ml, respectively. Acidified urine samples were processed using solid-phase extraction and assayed using a validated LC-MS/MS method with a calibration range of 5.0 to 5,000 ng/ml. For both matrices, separation was accomplished using a Waters Acquity HSS T3 column (Milford, MA) at 50°C, and gradient elution using 10 mM ammonium formate with 1% formic acid as mobile phase A and 50:50:1 acetonitrile:methanol:formic acid (vol/vol/vol) as mobile phase B. A triple quadrupole mass spectrometer (API Triple Quad 5500; AB Sciex, Framingham, MA) equipped with a turbo-ion spray set was used for detection in positive ion mode, and quantification was based on multiple reaction monitoring. The internal standard used in the assays was D4-taniborbactam.\nIndividual subject plasma and urine taniborbactam pharmacokinetic parameters were evaluated using noncompartmental analysis methods (Phoenix WinNonlin, Certara, Princeton, NJ). Single-dose pharmacokinetic parameters were determined in the SAD part, and both single-dose (day 1) and multiple-dose (day 10) pharmacokinetic parameters were determined in the MAD part. Estimated pharmacokinetic parameters included Cmax, time to Cmax (Tmax), AUCtau, AUC0–inf, t1/2, CL, VZ, Ae, Fe, and CLR. The actual sample times were used to calculate the pharmacokinetic parameters. Calculation of λZ was based on best fit of concentrations in the observed terminal elimination phase of a profile, and statistical inclusion of any parameter based on λZ required the goodness of fit statistic (R^2) to be greater than 0.8. Pharmacokinetic data were summarized using descriptive statistics by treatment. Dose proportionality based on Cmax and AUC was determined using linear regression to calculate the slope and 90% CI and observing whether a slope of 1 was included in the confidence interval. The dose proportionality analysis included subject body weight as a covariate in the analysis."}, "[3]": {"tested_on": "Enterobacterales isolates", "set-up": "method as in ref 13, 14 = [13]; 13 Vidales A , Hackel M , Wise M , Sahm D . 2020 . Antimicrobial activity of cefepime in combination with taniborbactam (formerly VNRX-5133) against clinical isolates of Enterobacterales collected fro || [14]; 14 Kalamatas J , Hackel M , Wise M , Sahm D . 2020 . Antimicrobial activity of cefepime in combination with taniborbactam (formerly VNRX-5133) against a 2018–2019 surveillance collection of Pseudomona", "settings": "cited from earlier work"}}, "data": [{"smiles": "NCCN[C@H]1CC[C@H](CC(=O)N[C@H]2Cc3cccc(C(=O)O)c3OB2O)CC1", "note": "[Taniborbactam]", "values": [{"measurement": "QT effect (ΔΔQTcF) from exposure-response analysis", "setting": "[1]; plasma concentrations up to 80,000 ng/ml (Cmax of 1,500 mg dose)", "result": "≤ 10", "unit": "ms"}, {"measurement": "effect on heart rate, T-wave morphology, PR and QRS interval", "setting": "[1]; single doses 62.5 to 1,500 mg", "result": "did not have an effect"}, {"measurement": "AUCtau", "setting": "[2]; 250 mg q8h, day 1", "result": "34,447 (17.2) h · ng/ml"}, {"measurement": "Cmax", "setting": "[2]; 250 mg q8h, day 1", "result": "10,544 (18.3) ng/ml"}, {"measurement": "Tmax", "setting": "[2]; 250 mg q8h, day 1", "result": "2.0 (2.0, 2.1) h"}, {"measurement": "AUCtau", "setting": "[2]; 250 mg q8h, day 10", "result": "41,563 (15.1) h · ng/ml"}, {"measurement": "CLR,SS", "setting": "[2]; 250 mg q8h, day 10", "result": "5.2 (17.3) liters/h"}, {"measurement": "CLSS", "setting": "[2]; 250 mg q8h, day 10", "result": "6.2 (15.9) liters/h"}, {"measurement": "Cmax", "setting": "[2]; 250 mg q8h, day 10", "result": "11,188 (16.5) ng/ml"}, {"measurement": "Vz", "setting": "[2]; 250 mg q8h, day 10", "result": "36.0 (28.3) liters"}, {"measurement": "Tmax", "setting": "[2]; 250 mg q8h, day 10", "result": "2.0 (2.0, 2.1) h"}, {"measurement": "t1/2", "setting": "[2]; 250 mg q8h, day 10", "result": "4.1 (29.3) h"}, {"measurement": "Ae", "setting": "[2]; 250 mg q8h, day 10", "result": "211.0 (11.8) mg"}, {"measurement": "Fe", "setting": "[2]; 250 mg q8h, day 10", "result": "84.4 (11.8) %"}, {"measurement": "Fe", "setting": "[2]; 250 mg q8h, day 10, listed as taniborbactam", "result": 84.4, "unit": "%"}, {"measurement": "AUCtau mean ratio, last dose compared to first dose", "setting": "[2]; 250 mg q8h", "result": 1.21}, {"measurement": "AUCtau", "setting": "[2]; 500 mg q8h, day 1", "result": "81,890 (14.7) h · ng/ml"}, {"measurement": "Cmax", "setting": "[2]; 500 mg q8h, day 1", "result": "25,778 (15.2) ng/ml"}, {"measurement": "Tmax", "setting": "[2]; 500 mg q8h, day 1", "result": "2.0 (2.0, 2.1) h"}, {"measurement": "AUCtau", "setting": "[2]; 500 mg q8h, day 10", "result": "89,103 (13.8) h · ng/ml"}, {"measurement": "CLR,SS", "setting": "[2]; 500 mg q8h, day 10", "result": "5.3 (14.2) liters/h"}, {"measurement": "CLSS", "setting": "[2]; 500 mg q8h, day 10", "result": "5.7 (12.6) liters/h"}, {"measurement": "Cmax", "setting": "[2]; 500 mg q8h, day 10", "result": "26,533 (13.0) ng/ml"}, {"measurement": "Vz", "setting": "[2]; 500 mg q8h, day 10", "result": "39.8 (14.3) liters"}, {"measurement": "Tmax", "setting": "[2]; 500 mg q8h, day 10", "result": "2.0 (2.0, 2.3) h"}, {"measurement": "t1/2", "setting": "[2]; 500 mg q8h, day 10", "result": "4.9 (13.3) h"}, {"measurement": "Ae", "setting": "[2]; 500 mg q8h, day 10", "result": "462.2 (10.2) mg"}, {"measurement": "Fe", "setting": "[2]; 500 mg q8h, day 10", "result": "92.4 (10.2) %"}, {"measurement": "Fe", "setting": "[2]; 500 mg q8h, day 10, listed as taniborbactam", "result": 92.4, "unit": "%"}, {"measurement": "AUCtau mean ratio, last dose compared to first dose", "setting": "[2]; 500 mg q8h", "result": 1.09}, {"measurement": "AUCtau", "setting": "[2]; 750 mg q8h, day 1", "result": "119,140 (18.0) h · ng/ml"}, {"measurement": "Cmax", "setting": "[2]; 750 mg q8h, day 1", "result": "39,122 (23.7) ng/ml"}, {"measurement": "Tmax", "setting": "[2]; 750 mg q8h, day 1", "result": "2.0 (2.0, 2.3) h"}, {"measurement": "AUCtau", "setting": "[2]; 750 mg q8h, day 10", "result": "139,518 (21.6) h · ng/ml"}, {"measurement": "CLR,SS", "setting": "[2]; 750 mg q8h, day 10", "result": "5.2 (28.6) liters/h"}, {"measurement": "CLSS", "setting": "[2]; 750 mg q8h, day 10", "result": "5.6 (21.1) liters/h"}, {"measurement": "Cmax", "setting": "[2]; 750 mg q8h, day 10", "result": "38,778 (18.2) ng/ml"}, {"measurement": "Vz", "setting": "[2]; 750 mg q8h, day 10", "result": "37.4 (19.9) liters"}, {"measurement": "Tmax", "setting": "[2]; 750 mg q8h, day 10", "result": "2.0 (2.0, 2.3) h"}, {"measurement": "t1/2", "setting": "[2]; 750 mg q8h, day 10", "result": "4.7 (15.4) h"}, {"measurement": "Ae", "setting": "[2]; 750 mg q8h, day 10", "result": "692.2 (21.7) mg"}, {"measurement": "Fe", "setting": "[2]; 750 mg q8h, day 10", "result": "92.3 (21.7) %"}, {"measurement": "Fe", "setting": "[2]; 750 mg q8h, day 10, listed as taniborbactam", "result": 92.3, "unit": "%"}, {"measurement": "AUCtau mean ratio, last dose compared to first dose", "setting": "[2]; 750 mg q8h", "result": 1.17}, {"measurement": "administered dose recovered in urine as intact drug", "setting": "[2]; at steady state", "result": "approximately 90%"}, {"measurement": "potentiation of cefepime activity as measured by the MIC90", "setting": "[3]", "result": "at least 128 fold"}]}]}
